The record followed here is US10294202B2, “Pyrrolidinones as herbicides” (FMC Corporation, priority 2013, dated 2019).

In assay [1] the test system is barnyardgrass. Briefly: Test F flood (paddy) test. The assay is classed as in vivo, Echinochloa crus-galli. Particulars: 21 d, scale 0-100. The source says:
Three plastic pots (ca. 16-cm diameter) per rate were partially filled with sterilized Tama silt loam soil comprising a 35:50:15 ratio of sand, silt and clay and 2.6% organic matter. Separate plantings for each of the three pots were as follows. Seeds from the U.S. of monochoria (Monochoria vaginalis), sedge, umbrella (small-flower umbrella sedge, Cyperus difformis), bulrush, […] bulrush, Scirpus juncoides), and […] (purple […] coccinea), were planted into one 16-cm pot for each rate. Seeds from the U.S. of flatsedge, rice (rice flatsedge, Cyperus iria), sprangletop, Brdd. (bearded sprangletop, Leptochloa fascicularis), one stand of 9 or 10 water seeded rice seedlings (Rice, W.S. Jap, Oryza sativa cv. 'Japonica-[…]' or Rice, W.S. Ind, 'Indica'), and two stands of 3 or 4 seedlings of rice, transplanted (transplanted rice, Oryza sativa cv. 'Japonica-[…]') were planted into one 16-cm pot for each rate. Seeds from the U.S. of barnyardgrass (Echinochloa crus-galli), […] (common […], Alisma plantago-aquatica), and watergrass, late (late watergrass, Echinochloa oryzicola) were planted into one 16-cm pot for each rate. Plantings were sequential so that crop and weed species were at the 2.0 to 2.5-leaf stage at time of treatment. Potted plants were grown in a greenhouse with day/night temperature settings of 30/27° C., and supplemental balanced lighting was provided to maintain a 16-h photoperiod. Test pots were maintained in the greenhouse until test completion. At time of treatment, test pots were flooded to 3 cm above the soil surface, treated by application of test compounds directly to the paddy water, and then maintained at that water depth for the duration of the test. Effects of treatments on rice and weeds were visually evaluated by comparison to untreated controls after 21 d. Plant response ratings, summarized in Table F, are based on a scale of 0 to 100 where 0 is no effect and 100 is complete control. A dash (-) response means no test result.

Assay [2] deals with ryegrass, Italian. The assay is described as follows: Test D pre-/postemergence herbicide test. Particulars: for Plant response rating, Ryegrass, Italian: Preemergence, scale 0 to 100 (0 no effect, 100 complete control); for Plant response rating: Postemergence, Ryegrass, Italian, scale 0 to 100. The class given is in vivo, Lolium multiflorum. From the text: (§1) Seeds of plant species selected from bluegrass (annual bluegrass, Poa annua), blackgrass (Alopecurus myosuroides), canarygrass (littleseed canarygrass, Phalaris minor), chickweed (common chickweed, Stellaria media), galium (catchweed bedstraw, Galium aparine), bromegrass, downy (downy bromegrass, Bromus tectorum), field poppy (Papaver rhoeas), field violet (Viola arvensis), foxtail, green (green foxtail, Setaria viridis), deadnettle (henbit deadnettle, Lamium amplexicaule), ryegrass, Italian (Italian ryegrass, Lolium multiflorum), kochia (Kochia scoparia), lambsquarters (Chenopodium album), oilseed rape (Brassica napus), pigweed (Amaranthus retroflexus), chamomile (scentless chamomile, Matricaria inodora), Russian thistle (Salsola kali), speedwell (bird's-eye speedwell, Veronica persica), barley, spring (spring barley, Hordeum vulgare), wheat, spring (spring wheat, Triticum aestivum), buckwheat, wild (wild buckwheat, Polygonum convolvulus), mustard, wild (wild mustard, Sinapis arvensis), oat, wild (wild oat, Avena fatua), radish, wild (wild radish, Raphanus raphanistrum), […]), barley, winter (winter barley, Hordeum vulgare), and wheat, winter (winter wheat, Triticum aestivum) were planted into a silt loam soil and treated preemergence with test chemicals formulated in a non-phytotoxic solvent mixture which included a surfactant. At the same time, these species were planted in pots containing Redi-Earth® planting medium (Scotts Company, 14111 Scottslawn Road, Marysville, Ohio 43041) comprising spaghnum peat moss, vermiculite, wetting agent and starter nutrients and treated with postemergence applications of the test chemicals formulated in the same manner. Plants ranged in height from 2 to 18 cm (1- to 4-leaf stage). Treated plants and controls were maintained in a controlled growth environment for 7 to 21 days after which time all species were compared to controls and visually evaluated. Plant response ratings, summarized in Table D, are based on a scale of 0 to 100 where 0 is no effect and 100 is complete control. A dash (-) response means no test result.

Assay [3] relates to bluegrass. Briefly: Test D pre-/postemergence herbicide test. The assay is classed as in vivo, Poa annua. Particulars: for Plant response rating, Bluegrass: scale 0 to 100 (0 no effect, 100 complete control); for Plant response rating: Bluegrass, scale 0 to 100.
Description: as §1

Assay [4] concerns blackgrass. The assay is described as follows: Test D pre-/postemergence herbicide test. The assay is classed as in vivo, Alopecurus myosuroides. To be noted: for Plant response rating, Blackgrass: scale 0 to 100 (0 no effect, 100 complete control); for Plant response rating: Blackgrass, scale 0 to 100.
Description: as §1

The subject of assay [5] is barley, winter. Briefly: Test D pre-/postemergence herbicide test. The assay is classed as in vivo, Hordeum vulgare. Particulars: for Plant response rating, Barley, Winter: scale 0 to 100 (0 no effect, 100 complete control); for Plant response rating: Barley, Winter, scale 0 to 100. Summed up:
(§2)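 Compound applied in non-phytotoxic solvent with surfactant, either preemergence (silt loam soil) or postemergence (peat moss/vermiculite medium, 2–18 cm plants). Evaluated visually after 7 to 21 days; 0 = no effect, 100 = complete control.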

The test system of assay [6] is barley, spring. Briefly: Test D pre-/postemergence herbicide test. The class given is in vivo, Hordeum vulgare. To be noted: for Plant response rating, Barley, Spring: scale 0 to 100 (0 no effect, 100 complete control); for Plant response rating: Barley, Spring, scale 0 to 100. Summed up:
as §2

Assay [7] relates to field poppy. Briefly: Test D pre-/postemergence herbicide test. Particulars: for Plant response rating, Field Poppy: scale 0 to 100 (0 no effect, 100 complete control); for Plant response rating: Field Poppy, scale 0 to 100. The assay is classed as in vivo, Papaver rhoeas.
Description: as §1

As for `O=C1NCC(c2cccc(C(F)(F)F)c2)C1C(=O)Nc1ccccc1F` (racemic) [Compound 3], the “Plant response rating, Barnyardgrass” value in assay [1] (250 g ai/ha) and in assay [1] (500 g ai/ha) was 90 each time.

As to `CN1CC(c2ccc(F)cc2)C(C(=O)Nc2cccc(F)c2F)C1=O` (centres unmarked) [Compound 271], the “Plant response rating, Barnyardgrass” value in assay [1] (64 g ai/ha) came to 55; in assay [1] (125 g ai/ha), 75; in assay [1] (250 g ai/ha), 100; in assay [1] (500 g ai/ha), 100.

Take `O=C1NCC(c2cccc(C(F)(F)F)c2)C1C(=O)Nc1ccc(F)cc1F` (racemic) [Compound 207]: the “Plant response rating, Ryegrass, Italian” value in assay [2] (31 g ai/ha) amounted to 0; in assay [2] (62 g ai/ha), 5; in assay [2] (125 g ai/ha), 5; in assay [2] (250 g ai/ha), 15. Also, the figures for the “Plant response rating, Barnyardgrass” value in assay [1] (125 g ai/ha), in assay [1] (250 g ai/ha) and in assay [1] (500 g ai/ha) were 60, 100 and 100, respectively. In addition, the “Plant response rating, Bluegrass” value in assay [3] (Preemergence, 31 g ai/ha) is recorded as 0; in assay [3] (Preemergence, 62 g ai/ha), 15; in assay [3] (Preemergence, 125 g ai/ha) it was 15. Further, the Plant response rating was 30 in assay [3] (Preemergence, 250 g ai/ha); 75 in assay [4] (Preemergence, 250 g ai/ha); 45 in assay [5] (Preemergence, 250 g ai/ha); 25 in assay [6] (Preemergence, 250 g ai/ha); 100 in assay [7] (Preemergence, 250 g ai/ha). For the same molecule, the “Plant response rating, Blackgrass” value in assay [4] (Preemergence, 31 g ai/ha) came out at 0; in assay [4] (Preemergence, 62 g ai/ha) it was 5; in assay [4] (Preemergence, 125 g ai/ha) it was 20. In addition, the “Plant response rating, Barley, Winter” value in assay [5] (Preemergence, 31 g ai/ha) was determined as 5; in assay [5] (Preemergence, 62 g ai/ha), 10; in assay [5] (Preemergence, 125 g ai/ha), 25. The “Plant response rating, Barley, Spring” value in assay [6] (Preemergence, 31 g ai/ha) is 0; in assay [6] (Preemergence, 62 g ai/ha), 5; in assay [6] (Preemergence, 125 g ai/ha), 20. Further, the “Plant response rating, Field Poppy” value was determined as 55 in assay [7] (Preemergence, 31 g ai/ha); 75 in assay [7] (Preemergence, 62 g ai/ha); 80 in assay [7] (Preemergence, 125 g ai/ha).

Turning to `O=C1NCC(c2ccc(C(F)(F)F)c(F)c2)C1C(=O)Nc1cccc(F)c1F` (racemic) [Compound 247], the “Plant response rating, Barnyardgrass” value in assay [1] (125 g ai/ha) came to 60; in assay [1] (250 g ai/ha), 65; in assay [1] (500 g ai/ha), 70; in assay [1] (1000 g ai/ha) it was 70; in assay [1] (2000 g ai/ha) it was 75.

As for `O=C1NCC(c2cc(F)c(F)c(F)c2)C1C(=O)Nc1ccccc1F` (racemic) [Compound 34], the Plant response rating in assay [2] (16 g ai/ha) was 0; in assay [2] (31 g ai/ha) it was 0; in assay [2] (62 g ai/ha), 0; in assay [2] (125 g ai/ha) it was 0; in assay [2] (250 g ai/ha), 0; in assay [3] (Postemergence, 16 g ai/ha) it was 0. The Plant response rating in assay [3] (Postemergence, 31 g ai/ha) turned out to be 0; in assay [3] (Postemergence, 62 g ai/ha), 0; in assay [3] (Postemergence, 125 g ai/ha), 0; in assay [3] (Postemergence, 250 g ai/ha), 0; in assay [4] (Postemergence, 16 g ai/ha), 0; in assay [4] (Postemergence, 31 g ai/ha), 0. The Plant response rating in assay [4] (Postemergence, 62 g ai/ha) stood at 0; in assay [4] (Postemergence, 125 g ai/ha), 0; in assay [4] (Postemergence, 250 g ai/ha), 0; in assay [5] (Postemergence, 16 g ai/ha), 0; in assay [5] (Postemergence, 31 g ai/ha), 0; in assay [5] (Postemergence, 62 g ai/ha), 0. Also, the Plant response rating in assay [5] (Postemergence, 125 g ai/ha) stood at 0; in assay [5] (Postemergence, 250 g ai/ha), 0; in assay [6] (Postemergence, 16 g ai/ha), 0; in assay [6] (Postemergence, 31 g ai/ha), 0; in assay [6] (Postemergence, 62 g ai/ha), 0; in assay [6] (Postemergence, 125 g ai/ha), 0. Besides, the Plant response rating worked out at 0 in assay [6] (Postemergence, 250 g ai/ha); 0 in assay [7] (Postemergence, 16 g ai/ha); 0 in assay [7] (Postemergence, 31 g ai/ha); 0 in assay [7] (Postemergence, 62 g ai/ha); 0 in assay [7] (Postemergence, 125 g ai/ha); 20 in assay [7] (Postemergence, 250 g ai/ha).
